In BindingDB's records for doi:10.1021/acs.jmedchem.8b01436 (University of New South Wales, 2019):
Peptide text beside a SMILES is read from it.

Assay: Inhibition of (2S,8S,11S,14S)-2-(4-aminobutyl)-14-(3-guanidinopropyl)-8-(4-hydroxybenzyl)-11-(hydroxymethyl)-4,7,10,13,16,32-hexaoxo-36-((3aS,4S,6aR)-2-oxohexahydro-1H-thieno[3,4-d]imidazol-4-yl)-19,22,25,28-tetraoxa-3,6,9,12,15,31-hexaazahexatriacontan-1-oic acid binding to human Hsp72 SBD expressed in Escherichia coli BL21 (DE3) by Western

Row | IC50 [µM] | SMILES
1 | 87.3 | N=C(N)NCCC[C@H](NC(=O)[C@H](CO)NC(=O)[C@H](Cc1ccc(O)cc1)NC(=O)CNC(=O)[C@@H](N)CCCCN)C(=O)O (H-KGYSR-OH)
2 | 248 | N=C(N)NCCC[C@H](NC(=O)[C@H](CO)NC(=O)[C@H](Cc1ccc(O)cc1)NC(=O)CNC(=O)[C@@H](N)CCCCN)C(=O)N[C@@H](CCCCN)C(=O)O (H-KGYSRK-OH)
3 | 70 | C[C@H](NC(=O)[C@H](CCCCN)NC(=O)[C@H](CCCNC(=N)N)NC(=O)[C@H](CO)NC(=O)[C@H](Cc1ccc(O)cc1)NC(=O)CNC(=O)[C@@H](N)CCCCN)C(=O)O (H-KGYSRKA-OH)
4 | 6.43 | C[C@H](NC(=O)[C@H](C)NC(=O)[C@H](CCCCN)NC(=O)[C@H](CCCNC(=N)N)NC(=O)[C@H](CO)NC(=O)[C@H](Cc1ccc(O)cc1)NC(=O)CNC(=O)[C@@H](N)CCCCN)C(=O)O (H-KGYSRKAA-OH)
